Measurements reported in ChEMBL document CHEMBL1158324, “Isolation, structure elucidation, and biological activity of the steroid oligoglycosides and polyhydroxysteroids from the Antarctic starfish Acodontaster conspicuus” (J Nat Prod, 1997).
Calls of active or inactive are those of the source. The calls are words filed in the database; no cut-off is given here.

Tests used:
Assay type in all cases: functional, organism-based
Acodontaster conspicuus [1] = experiment: Antimicrobial activity against Acodontaster conspicuus McM13.3 at 20 degC after 48 hrs by paper disk method
Acodontaster conspicuus [2] = experiment: Antimicrobial activity against Acodontaster conspicuus McM32.2 at 20 degC after 48 hrs by paper disk method
Acodontaster conspicuus [3] = experiment: Antimicrobial activity against Acodontaster conspicuus McM11.5 at 20 degC after 72 hrs by paper disk method
Acodontaster conspicuus [4] = experiment: Antimicrobial activity against Acodontaster conspicuus McM18.1 at 20 degC after 48 hrs by paper disk method

Row | SMILES | Activity (Acodontaster conspicuus [1]) | Activity (Acodontaster conspicuus [2]) | Activity (Acodontaster conspicuus [3]) | Activity (Acodontaster conspicuus [4])
1 | CC(C)/C(=C/CO[C@@H]1OC[C@@H](O)[C@H](O)[C@H]1O)CC[C@@H](C)[C@H]1C[C@@H](O)C2=C3C[C@H](O)[C@H]4C[C@@H](O)CC[C@]4(C)[C@H]3CC[C@@]21C | Active | Active |  | 
2 | CC(/C=C/[C@@H](C)[C@H]1C[C@@H](O)C2=C3C[C@H](O)C4C[C@@H](O)CC[C@]4(C)[C@H]3CC[C@@]21C)CO (some centres not stated) | Active |  |  | 
3 | CC(C)[C@@H](O)/C=C/[C@@H](C)[C@H]1C[C@@H](O)[C@@H]2[C@]1(C)CC[C@H]1[C@@]2(O)C[C@H](O)C2C[C@@H](O)CC[C@@]21C (some centres not stated) | Active | Active |  | 
4 | CC(C)[C@@H](CCO[C@@H]1OC[C@@H](O)[C@H](O)[C@H]1O[C@@H]1OC[C@@H](O)[C@H](O)[C@H]1O)CC[C@@H](C)[C@H]1C[C@@H](O)[C@@H]2[C@]1(C)CC[C@@H]1[C@@]3(C)CC[C@H](O)[C@H](O)[C@@H]3[C@@H](O)C[C@]12O | Active | Active |  | 
5 | CO[C@H]1[C@H](O[C@H]2[C@H](OCC[C@H](CC[C@@H](C)[C@H]3C[C@@H](O)[C@@H]4[C@]3(C)CC[C@@H]3[C@@]5(C)CC[C@H](O)[C@H](O)[C@@H]5[C@@H](O)C[C@]34O)C(C)C)OC[C@@H](O)[C@@H]2O)OC[C@@H](O)[C@@H]1O | Active | Active |  | 
6 | CO[C@H]1[C@H](O[C@H]2[C@H](OC[C@@H](C)[C@H](C)/C=C/[C@@H](C)[C@H]3C[C@@H](O)C4=C5C[C@H](O)[C@H]6C[C@@H](O)CC[C@]6(C)[C@H]5CC[C@@]43C)OC[C@@H](O)[C@@H]2O)OC[C@@H](O)[C@@H]1O |  |  | Active | 
7 | C=C(CC[C@@H](C)[C@H]1C[C@@H](O)[C@@H]2[C@]1(C)CC[C@@H]1[C@@]3(C)CC[C@H](O)[C@H](O)[C@@H]3[C@@H](O)C[C@]12O)C(C)CO[C@@H]1OC[C@@H](O)[C@H](O)[C@H]1O[C@@H]1OC[C@@H](O)[C@H](O)[C@H]1OC (some centres not stated) |  | Active |  | 
8 | CC(C)CC(=O)C[C@@](C)(O)[C@H]1CC[C@H]2[C@@H]3C[C@H](O[C@@H]4O[C@H](C)[C@@H](O)[C@H](O[C@@H]5OC[C@@H](O[C@@H]6O[C@H](CO)[C@H](O)[C@H](O)[C@H]6O[C@@H]6O[C@H](C)[C@@H](O)[C@H](O)[C@H]6O)[C@H](O)[C@H]5O[C@H]5O[C@@H](C)[C@H](O)[C@@H](O)[C@@H]5O)[C@H]4O)[C@H]4C[C@@H](OS(=O)(=O)O)CC[C@]4(C)C3=CC[C@@]21C | inactive | inactive | inactive | inactive
9 | CC(C)[C@@H](C)C(=O)C[C@@](C)(O)[C@H]1CC[C@H]2[C@@H]3C[C@H](O[C@@H]4O[C@H](C)[C@@H](O)[C@H](O[C@@H]5OC[C@@H](O[C@@H]6O[C@H](CO)[C@H](O)[C@H](O)[C@H]6O[C@@H]6O[C@H](C)[C@@H](O)[C@H](O)[C@H]6O)[C@H](O)[C@H]5O[C@H]5O[C@@H](C)[C@H](O)[C@@H](O)[C@@H]5O)[C@H]4O)[C@H]4C[C@@H](OS(=O)(=O)O)CC[C@]4(C)C3=CC[C@@]21C | inactive | inactive | inactive | inactive
10 | CC(C)C[C@@H]1O[C@H]1[C@@](C)(O)[C@H]1CC[C@H]2[C@@H]3C[C@H](O[C@@H]4O[C@H](C)[C@@H](O)[C@H](O[C@@H]5OC[C@@H](O[C@@H]6O[C@H](CO)[C@H](O)[C@H](O)[C@H]6O[C@@H]6O[C@H](C)[C@@H](O)[C@H](O)[C@H]6O)[C@H](O)[C@H]5O[C@H]5O[C@@H](C)[C@H](O)[C@@H](O)[C@@H]5O)[C@H]4O)[C@H]4C[C@@H](OS(=O)(=O)O)CC[C@]4(C)C3=CC[C@]12C | inactive | inactive | inactive | inactive
11 | CO[C@H]1[C@H](O[C@H]2[C@H](OC[C@@H](C)[C@H](C)/C=C/[C@@H](C)[C@H]3C[C@@H](O)[C@@H]4[C@]3(C)CC[C@@H]3[C@@]5(C)CC[C@H](O)[C@H](O)[C@@H]5[C@@H](O)C[C@]34O)OC[C@@H](O)[C@@H]2O)OC[C@@H](O)[C@@H]1O | Active | Active |  | 
12 | C[C@H](/C=C/[C@@H](C)[C@H]1C[C@@H](O)C2=C3C[C@H](O)C4C[C@@H](O)CC[C@]4(C)[C@H]3CC[C@@]21C)[C@H](C)CO (some centres not stated) | Active | Active |  | 
